Reference: ChEMBL document CHEMBL2375211, “2-methoxyjuglone induces apoptosis in HepG2 human hepatocellular carcinoma cells and exhibits in vivo antitumor activity in a H22 mouse hepatocellular carcinoma model” (J Nat Prod, 2013)

Columns and labels:
Mus musculus = assay: Toxicity in Kunming mouse allografted with mouse H22 cells assessed as decrease in body weight at 20 mg/kg/day, ip measured every day for 8 days; type: organism-based; set-up: route intraperitoneal; conditions: in vivo, 192 h
H22 = assay: Antitumor activity against mouse H22 cells allografted in Kunming mouse assessed as decrease in weight of tumor mass at 20 mg/kg/day, ip administered 8 days measured after 10 days relative to control; type: functional; set-up: scale not given: the % may be the effect or the level left; conditions: route intraperitoneal

## O=c1[nH]cc(F)c(=O)[nH]1 [FLUOROURACIL]
Mus musculus
  Activity: Toxic
H22
  Activity: 81%
